# Laboratory results as given in US8865911B2, “Compounds and their use as BACE inhibitors” (Astrazeneca AB, priority 2010, dated 2014).
# Biological target: T1, human β-Secretase (Homo sapiens (Human), UniProt P56817)
# Assay: TR-FRET assay
# Format: biochemical
# Conditions: sBACE-Fc, substrate (Europium)CEVNLDAEFK(Qsy7) 100 nM, pH4.5, 15 minutes at r.t.
# Protocol: (§1) The β-secretase enzyme used in the TR-FRET is prepared as follows: The cDNA for the soluble part of the human β-Secretase (AA 1-AA 460) was cloned using the ASP2-Fc10-1-IRES-GFP-neoK mammalian expression vector. The gene was fused to the Fc domain of IgG1 (affinity tag) and stably cloned into HEK 293 cells.
# (§2) The robotic systems Biomek FX and Velocity 11 were used for all liquid handling and the enzyme and substrate solutions were kept on ice until they were placed in the robotic system. Enzyme (9 μl) was added to the plate then 1 μl of compound in dimethylsulphoxide was added, mixed and pre-incubated for 10 minutes. Substrate (10 μl) was then added, mixed and the reaction proceeded for 15 minutes at r.t. The reaction was stopped with the addition of Stop solution (7 μl, NaAcetate, pH 9). […] The dimethylsulphoxide control, instead of test compound, defined the 100% activity level and 0% activity was defined by wells lacking enzyme (replaced with reaction buffer).
# T1 sequence (P56817 22-460): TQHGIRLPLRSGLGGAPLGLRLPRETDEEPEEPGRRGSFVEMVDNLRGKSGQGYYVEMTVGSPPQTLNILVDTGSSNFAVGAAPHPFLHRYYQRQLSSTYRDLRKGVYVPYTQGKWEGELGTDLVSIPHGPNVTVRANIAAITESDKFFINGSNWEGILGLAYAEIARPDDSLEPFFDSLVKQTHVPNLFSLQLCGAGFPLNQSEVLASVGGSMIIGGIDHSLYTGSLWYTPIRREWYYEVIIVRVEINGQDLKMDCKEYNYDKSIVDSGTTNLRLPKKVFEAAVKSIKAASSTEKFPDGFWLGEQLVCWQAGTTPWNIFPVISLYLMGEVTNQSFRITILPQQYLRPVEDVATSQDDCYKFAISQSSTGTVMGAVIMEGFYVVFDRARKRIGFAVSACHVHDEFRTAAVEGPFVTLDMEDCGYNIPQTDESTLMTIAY
row,IC50 [nM],SMILES
1,25,"CCO[C@H]1CC[C@]2(CC1)Cc1ccc(-c3cncc(Cl)c3)cc1C21N=C(C)C(N)=N1 (stereo partly drawn) [Example 133, (1r,4r)-6′-(5-chloropyridin-3-yl)-4-ethoxy-5″-methyl-3′H-dispiro[cyclohexane-1,2′-indene-1′,2″-imidazol]-4″-amine]"
2,28,"CCO[C@H]1CC[C@]2(CC1)Cc1ccc(-c3cc(C#N)cc(C(F)F)c3)cc1C21N=C(C)C(N)=N1 (stereo partly drawn) [Example 134, 3-[(1r,4r)-4″-Amino-4-ethoxy-5″-methyl-3′H-dispiro[cyclohexane-1,2′-indene-1′,2″-imidazol]-6′-yl]-5-(difluoromethyl)benzonitrile]"
3,22,"CC#Cc1cncc(-c2ccc3c(c2)C2(N=C(C)C(N)=N2)[C@]2(CC[C@H](OCC)CC2)C3)c1 (stereo partly drawn) [Example 135, (1r,4r)-4-Ethoxy-5″-methyl-6′-[5-(prop-1-yn-1-yl)pyridin-3-yl]-3′H-dispiro[cyclohexane-1,2′-indene-1′,2″-imidazol]-4″-amine]"

# Biological target: T1, human β-Secretase
# Assay: Diluted TR-FRET assay
# Format: biochemical
# Conditions: values marked ^a; 50 times less enzyme, 6.5 h reaction time at r.t. in the dark; read-out: IC50 in TR-FRET assay (IC50 from the diluted FRET assay)
# Protocol: as §1
# as §2, with “Substrate (10 μl) was then added, mixed and the reaction proceeded for 15 minutes at r.t.” left out
row,SMILES,IC50 [nM]
1,"COc1cc(C#N)cc(-c2ccc3c(c2)[C@@]2(N=C(C)C(N)=N2)[C@]2(CC[C@H](OC(F)F)CC2)C3)c1 (racemic) [Example 106, 3-[(1r,4r)-4″-Amino-4-(difluoromethoxy)-5″-methyl-3′H-dispiro[cyclohexane-1,2′-indene-1′,2″-imidazol]-6′-yl]-5-methoxybenzonitrile]",1
2,"CC#Cc1ccnc(-c2ccc3c(c2)C2(N=C(C)C(N)=N2)[C@]2(CC[C@H](OC)CC2)C3)c1 (stereo partly drawn) [Example 20b, (1r,4r)-4-Methoxy-5″-methyl-6′-[4-(prop-1-yn-1-yl)pyridin-2-yl]-3′H-dispiro[cyclohexane-1,2′-indene-1′,2″-imidazol]-4″-amine]",2.3
3,"CO[C@H]1CC[C@]2(CC1)Cc1ccc(-c3cncc(F)c3)cc1C21N=C(C)C(N)=N1 (stereo partly drawn) [Example 20f, (1r,4r)-6′-(5-Fluoropyridin-3-yl)-4-methoxy-5″-methyl-3′H-dispiro[cyclohexane-1,2′-indene-1′,2″-imidazol]-4″-amine]",5.5
4,"CO[C@H]1CC[C@]2(CC1)Cc1ccc(NC(=O)c3ncc(Cl)cc3C)cc1C21N=C(C)C(N)=N1 (stereo partly drawn) [Example 20w, N-[(1r,4r)-4″-Amino-4-methoxy-5″-methyl-3′H-dispiro[cyclohexane-1,2′-indene-1′,2″-imidazol]-6′-yl]-5-chloro-3-methylpyridine-2-carboxamide]",18
5,"CO[C@H]1CC[C@]2(CC1)Cc1ccc(-c3cc(Cl)cnc3C)cc1C21N=C(C)C(N)=N1 (stereo partly drawn) [Example 62, (1r,4r)-6′-(5-Chloro-2-methylpyridin-3-yl)-4-methoxy-5″-methyl-3′H-dispiro[cyclohexane-1,2′-indene-1′,2″-imidazol]-4″-amine]",19
6,"CCC1=NC2(N=C1N)c1cc(-c3cncc(C#N)c3)ccc1C[C@]21CC[C@@H](OC)CC1 (stereo partly drawn) [Example 69, 5-[(1r,4r)-4″-Amino-5″-ethyl-4-methoxy-3′H-dispiro[cyclohexane-1,2′-indene-1′,2″-imidazol]-6′-yl]pyridine-3-carbonitrile]",21
7,"CO[C@H]1CC[C@]2(CC1)Cc1ccc(-c3cc(C)cc(C#N)c3)cc1C21N=C(C)C(N)=N1 (stereo partly drawn) [Example 74, 3-[(1r,4r)-4″-Amino-4-methoxy-5″-methyl-3′H-dispiro[cyclohexane-1,2′-indene-1′,2″-imidazol]-6′-yl]-5-methylbenzonitrile]",2.6
8,"CO[C@H]1CC[C@]2(CC1)Cc1ccc(-c3cc(C#N)cc(C(F)F)c3)cc1[C@@]21N=C(C)C(N)=N1 [Example 86, 3-[(1r,1′R,4R)-4″-Amino-4-methoxy-5″-methyl-3′H-dispiro[cyclohexane-1,2′-indene-1′,2″-imidazol]-6′-yl]-5-(difluoromethyl)benzonitrile]",1.5
9,"CCc1cc(C#N)cc(-c2ccc3c(c2)C2(N=C(C)C(N)=N2)[C@]2(CC[C@H](OC)CC2)C3)c1 (stereo partly drawn) [Example 95, 3-[(1r,4r)-4″-Amino-4-methoxy-5″-methyl-3′H-dispiro[cyclohexane-1,2′-indene-1′,2″-imidazol]-6′-yl]-5-ethylbenzonitrile]",5.3
10,"COc1ccc(F)c(-c2ccc3c(c2)[C@@]2(N=C(C)C(N)=N2)[C@]2(CC[C@H](OC)CC2)C3)c1 [Example 98, (1r,1′R,4R)-6′-(2-Fluoro-5-methoxyphenyl)-4-methoxy-5″-methyl-3′H-dispiro[cyclohexane-1,2′-indene-1′,2″-imidazol]-4″-amine]",1.5
11,"CC1=NC2(N=C1N)c1cc(-c3cc(Cl)cc(C#N)c3)ccc1C[C@]21CC[C@@H](OC(F)F)CC1 (stereo partly drawn) [Example 108, 3-[(1r,4r)-4″-Amino-4-(difluoromethoxy)-5″-methyl-3′H-dispiro[cyclohexane-1,2′-indene-1′,2″-imidazol]-6′-yl]-5-chlorobenzonitrile]",1.3

# Further lines, results first:
row,IC50 [nM],SMILES
1,4.9,"CC#Cc1cc(-c2ccc3c(c2)C2(N=C(C)C(N)=N2)[C@]2(CC[C@H](OC)CC2)C3)ccn1 (stereo partly drawn) [Example 20y, (1r,4r)-4-Methoxy-5″-methyl-6′-[2-(prop-1-yn-1-yl)pyridin-4-yl]-3′H-dispiro[cyclohexane-1,2′-indene-1′,2″-imidazol]-4″-amine]"
2,1.4,CC#Cc1cncc(-c2ccc3c(c2)C2(N=C(C)C(N)=N2)C2(CCC(OC)CC2)O3)c1 (stereo not drawn) [Example 30c]
3,5.2,"COC1CCC2(CC1)Oc1ccc(-c3cncc(Cl)c3)cc1C21N=C(C)C(N)=N1 (stereo not drawn) [Example 30d, 5′-(5-Chloropyridin-3-yl)-4-methoxy-5′-methyldispiro[cyclohexane-1,2′-[1]benzofuran-3′,2″-imidazol]-4″-amine]"
4,13,"CO[C@H]1CC[C@]2(CC1)Cc1ccc(-c3ccccc3)cc1[C@@]21N=C(C)C(N)=N1 [Example 90, (1r,1′R,4R)-4-Methoxy-5″-methyl-6′-phenyl-3′H-dispiro[cyclohexane-1,2′-indene-1′,2″-imidazol]-4″-amine]"
5,3.9,"CO[C@H]1CC[C@]2(CC1)Cc1ccc(-c3cc(F)ccc3F)cc1[C@@]21N=C(C)C(N)=N1 [Example 99, (1r,1′R,4R)-6′-(2,5-Difluorophenyl)-4-methoxy-5′-methyl-3′H-dispiro[cyclohexane-1,2′-indene-1′,2″-imidazol]-4″-amine]"

# Test system: sAPPβ release, SH-SY5Y cells
# Assay: sAPPβ release assay
# Format: cell-based
# Conditions: Homo sapiens, SH-SY5Y, 17 h, compounds incubated 17 h, MSD detection
# Protocol: Thaw cells and seed at a conc. of around 10000 cells/well in DMEM/F-12 with Glutamax, 10% FCS and 1% non-essential amino acids to a 384-well tissue culture treated plate, 100 μL cell susp/well. […] The cell medium was removed, followed by addition of 30 μL compound diluted in DMEM/F-12 with Glutamax, 10% FCS, 1% non-essential amino acids and 1% PeSt to a final conc. of 1% DMSO. The compounds were incubated with the cells for 17 h (overnight) at 37° C., 5% CO2. Meso Scale Discovery (MSD) plates were used for the detection of sAPPβ release. MSD sAPPβ plates were blocked in 1% BSA in Tris wash buffer (40 μL/well) for 1 h on shake at r.t. and washed 1 time in Tris wash buffer (40 μL/well). 20 μL of medium was transferred to the pre-blocked and washed MSD sAPPβ microplates, and the cell plates were further used in an ATP assay to measure cytotoxicity. The MSD plates were incubated with shaking at r.t. for 2 h and the media discarded. 10 μL detection antibody was added (1 nM) per well followed by incubation with shaking at r.t. for 2 h and then discarded. 40 μL Read Buffer was added per well and the plates were read in a SECTOR Imager.
row,SMILES,IC50 [nM]
1,"CCC1=NC2(N=C1N)c1cc(-c3cncc(Cl)c3)ccc1C[C@]21CC[C@@H](OC)CC1 (single isomer, unassigned) [Example 66 Isomer 1, (1r,4r)-6′-(5-chloropyridin-3-yl)-5″-ethyl-4-methoxy-3′H-dispiro[cyclohexane-1,2′-indene-1′,2″-imidazol]-4″-amine]",1.6
2,"CC#Cc1cncc(-c2ccc3c(c2)C2(N=C(N)C(CC)=N2)[C@]2(CC[C@H](OC)CC2)C3)c1 (single isomer, unassigned) [Example 68 Isomer 1, (1r,4r)-5″-ethyl-4-methoxy-6′-[5-(prop-1-yn-1-yl)pyridin-3-yl]-3′H-dispiro[cyclohexane-1,2′-indene-1′,2″-imidazol]-4″-amine]",0.38

# Same assay, conditions: compounds incubated 17 h, MSD detection
row,IC50 [nM],SMILES
1,17,"CC1=NC2(CC(C3CCOC(C)(C)C3)Oc3ccc(-c4cccc(Cl)c4)cc32)N=C1N (racemic) [Example 50 Isomeric mixture 2, 6-(3-Chlorophenyl)-2-(2,2-dimethyltetrahydro-2H-pyran-4-yl)-5′-methylspiro[chroman-4,2′-imidazol]-4′-amine]"
2,419,"CC1=NC2(CC3(CCCOC3)Oc3ccc(-c4cccc(Cl)c4)cc32)N=C1N (single isomer, unassigned) [Example 46a Isomer 1, 6′-(3-Chlorophenyl)-5-methyl-5″,6″-dihydro-4″H-dispiro[imidazole-2,4′-chromene-2′,3″-pyran]-4-amine]"
3,426,"CC1=NC2(CC3(CCCOC3)Oc3ccc(-c4ccc(F)c(Cl)c4)cc32)N=C1N (single isomer, unassigned) [Example 46b Isomer 1, 6′-(3-Chloro-4-fluorophenyl)-5-methyl-5″,6″-dihydro-4′H-dispiro[imidazole-2,4′-chromene-2′,3″-pyran]-4-amine]"
